Series [1] relates to LPS/IL-1β-induced IL-6 secretion in human peripheral blood mononuclear cells (PBMCs). Nature of the series: Inhibition of LPS/IL-1β-induced IL-6 secretion in human PBMCs (IL-6 ELISA). It counts as cell-based. To be noted: PBMC, LPS 10 ng/mL + IL-1β 20 ng/mL, 24 h pre-incubation, 20 h stimulation. In outline: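 IC50 values come from fitted curves of IL-6 levels, determined by ELISA (OD450, standard curve) in supernatants diluted 200-fold. Human PBMCs received 5-fold serial compound dilutions (top 1 μM) for 24 h before a 20 h challenge with final 10 ng/mL LPS and 20 ng/mL IL-1β, 37 °C, 5% CO2.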

Series [2] can be described thus: Pharmacokinetic experiment on SD rats (iv and intragastric). It counts as in vivo. The following applies: Sprague-Dawley, rat, plasma; for Cmax: read-out: Peak plasma concentration Cmax. On the procedure:
Pharmacokinetic experiment on SD rats: in this experiment, two administration modes: oral intragastric administration and tail vein injection were selected. Oral administration was performed at a dose of 5 mg/kg using the compounds of the present disclosure. The administration volume was 10 mL/kg. Prior to use, an appropriate amount of the drug was accurately weighed and first dissolved in dimethyl sulfoxide (DMSO). An appropriate amount of Solutol and H2O were then added in sequence at a final volume ratio of 5% DMSO, 10% Solutol and 85% H2O. The mixture was sonicated and vortexed to homogeneity to prepare a clear drug solution with a concentration of 0.5 mg/mL. Intravenous administration was performed at a dose of 1 mg/kg using the compounds of the present disclosure. The administration volume was 10 mL/kg. Prior to use, an appropriate amount of each drug was accurately weighed separately, followed by the sequential addition of a suitable volume of PEG 400 and Saline at a final volume ratio of 20% PEG 400 to 80% Saline. The mixture was sonicated and vortexed to homogeneity to prepare a clear drug solution with a concentration of 0.1 mg/mL.
6 SD rats, each with body weight of 180-220 g, were randomly grouped into 2 groups. The animals were fasted overnight with free access to water. For the first group, intragastric administration was performed, and 200 μL of blood was collected from the orbital venous plexus into anticoagulant tubes at 15 min, 30 min, 1 h, 2 h, 4 h, 6 h, 8 h and 24 h post-administration, respectively. Within one hour, the blood samples were centrifuged at 10000 rpm for 20 m at 4° C. (preserved on an ice box prior to centrifugation). The upper supernatant, i.e., plasma, was harvested and stored in a refrigerator at −20° C. for subsequent LC-MS/MS analysis. For the second group, intravenous administration was conducted, and 200 μL of blood was collected from the orbital venous plexus into anticoagulant tubes at 5 min, 15 min, 30 min, 1 h, 2 h, 4 h, 8 h and 24 h post-administration, respectively. Within one hour, the blood samples were centrifuged at 10000 rpm for 20 min at […] (preserved on an ice box prior to centrifugation). The upper supernatant, i.e., plasma, was harvested and stored in a refrigerator at −20° C. for subsequent LC-MS/MS analysis.

Assay in series [3]: as above
Format: in vivo. The following applies: Sprague-Dawley, rat, plasma, po; for bioavailability: ig 10.00 mg/kg vs iv 1.00 mg/kg, read-out: Oral bioavailability Fobs; for AUC / AUC(0-inf) / Cmax: ig, 10.00 mg/kg; for Cmax: read-out: Peak plasma concentration Cmax.

A short description of series [4]: Metabolic stability in human liver microsome. Format: in vitro ADME. To be noted: liver microsomes, NADPH, 60 min, read-out: Human liver microsome (t1/2, min). As for the experimental part: Clean incubation plates T60 and NCF60 were preheated at 37° C. for 10 min. Liver microsomes were diluted to a concentration of 0.56 mg/mL with 100 mM phosphate buffer, and 445 μL of the microsome working solution (0.56 mg/mL) was transferred to the preheated incubation plates T60 and NCF60, followed by incubation of the plates T60 and NCF60 with continuous shaking at 37° C. for 10 min. After incubation, 54 μL of liver microsomes were transferred to a blank plate, 6 μL of NAPDH cofactor was added to the blank plate, and then 180 μL of quenching solution was added to the blank plate. 5 μL of the compound working solution (100 μM) was added to the microsome-containing incubation plates T60 and NCF60, and mixed thoroughly 3 times. For plate NCF60, 50 μL of buffer was added and the system was mixed thoroughly 3 times before timing was started, and the plate was incubated with shaking at 37° C. for 60 min. For the quenching plate, 180 μL of quenching solution and 6 μL of NADPH cofactor were added, and the plate was ensured to be cooled to prevent evaporation. For the T60 plate, the mixture was thoroughly mixed 3 times, and 54 μL of the mixture was immediately transferred to the quenching plate at the time point of 0 min. Then 44 μL of the NAPDH cofactor was added to the incubation plate (T60). Timing was started, and the plate was incubated with shaking at 37° C. for 60 min. At the time points of 5, 15, 30, 45, and 60 min, 180 μL of the quenching solution was added to the quenching plate respectively, mixed once, and 60 μL of sample was continuously transferred from the plate T60 to the quenching plate at each time point. For plate NCF60, after mixing once, 60 μL of the sample was transferred from incubation plate NCF60 to the quenching plate containing quenching solution at the 60-min time point. All sampling plates were shaken for 10 min, then centrifuged at 4000 rpm at 4° C. for 20 min. 80 μL of the supernatant was transferred to 240 μL of HPLC water, and mixed using a plate shaker for 10 min. Each bioanalytical plate was sealed and shaken for 10 min before LC-MS/MS analysis.

Read-outs that look alike come from different tables or passages of the source.

Regarding `CN(C)c1cc2nn([C@H]3CC[C@H](CN4C[C@@H](F)[C@H](n5cc6cc(C7CCC(=O)NC7=O)ccc6n5)C4)CC3)cc2cc1NC(=O)c1cnn2cccnc12` (stereo partly drawn) [TM-244], the IC50 in series [1] amounted to 4.95 nM. Besides, in series [2] (iv, 1.00 mg/kg), the area under the curve (AUC) stood at 2010 ± 361 ng·h/mL, the AUC(0-inf) worked out at 2440 ± 585 ng·h/mL and the Cmax turned out to be 784 ± 126 ng/mL. In series [3], the bioavailability came out at 54.2%, the AUC came out at 13000 ± 2900 ng·h/mL, the area under the curve AUC(0-inf) came to 13200 ± 2960 ng·h/mL and the Cmax worked out at 1330 ± 294 ng/mL. Also, in series [4], the half-life at 1 µM was determined as 79.5 min.
For `CN(C)c1cc2nn([C@H]3CC[C@H](CN4C[C@@H](n5cc6cc(N7CCC(=O)NC7=O)ccc6n5)[C@@H](F)C4)CC3)cc2cc1NC(=O)c1cnn2cccnc12` [TM-205], the IC50 in series [1] turned out to be 2.47 nM.
For the compound `CN(C)c1cc2nn([C@H]3CC[C@H](CN4C[C@H](F)[C@@H](n5cc6cc(C7CCC(=O)NC7=O)c(F)cc6n5)C4)CC3)cc2cc1NC(=O)c1cnn2cccnc12` (stereo partly drawn) [TM-249], in series [1], the IC50 was determined as 3.08 nM. In series [2] (iv, 1.00 mg/kg), the AUC was 2280 ± 190 ng·h/mL, the AUC(0-inf) came out at 2400 ± 354 ng·h/mL and the Cmax came out at 613 ± 39.8 ng/mL. Besides, in series [3], the bioavailability worked out at 38.8%, the AUC stood at 8610 ± 4000 ng·h/mL, the AUC(0-inf) amounted to 9310 ± 4680 ng·h/mL and the Cmax worked out at 814 ± 187 ng/mL. In addition, the half-life at 1 µM in series [4] is 139 min.
In the case of `CN(C)c1cc2nn([C@H]3CC[C@H](CN4C[C@@H](n5cc6cc(C7CCC(=O)NC7=O)c(F)cc6n5)[C@@H](F)C4)CC3)cc2cc1NC(=O)c1cnn2cccnc12` (stereo partly drawn) [TM-241], in series [1], the IC50 came to 6.35 nM. Further, in series [2] (iv, 1.00 mg/kg), the AUC stood at 4140 ± 1290 ng·h/mL, the AUC(0-inf) was 4220 ± 1300 ng·h/mL and the Cmax came to 920 ± 124 ng/mL. Also, in series [3], the bioavailability came out at 35.2%, the AUC amounted to 14200 ± 4660 ng·h/mL, the AUC(0-inf) amounted to 14900 ± 4690 ng·h/mL and the Cmax was found to be 1650 ± 641 ng/mL. The half-life at 1 µM in series [4] amounted to 106 min.
For `CN(C)c1cc2nn([C@H]3CC[C@H](CN4C[C@@H](F)[C@@H](n5cc6cc(C7CCC(=O)NC7=O)c(F)cc6n5)C4)CC3)cc2cc1NC(=O)c1cnn2cccnc12` (stereo partly drawn) [TM-240], in series [1], the IC50 stood at 1.09 nM. In series [2] (iv, 1.00 mg/kg), the AUC stood at 2630 ± 172 ng·h/mL, the AUC(0-inf) worked out at 2670 ± 175 ng·h/mL and the Cmax came out at 652 ± 32 ng/mL. In series [3], the bioavailability came to 29.9%, the AUC is 7990 ± 3140 ng·h/mL, the AUC(0-inf) is 7990 ± 3120 ng·h/mL and the Cmax was 976 ± 545 ng/mL. Further, the half-life at 1 µM in series [4] was 98.6 min.
For `CN(C)c1cc2nn([C@H]3CC[C@H](CN4CCC(n5cc6c(F)cc(N7CCC(=O)NC7=O)cc6n5)CC4)CC3)cc2cc1NC(=O)c1cnn2cccnc12` [TM-174], the IC50 in series [1] turned out to be 1.49 nM. Further, in series [2] (iv, 1.00 mg/kg), the AUC came out at 1480 ± 167 ng·h/mL, the AUC(0-inf) is 1700 ± 254 ng·h/mL and the Cmax is 272 ± 34.5 ng/mL. For the same compound, in series [3], the bioavailability was 24.5%, the AUC was determined as 3630 ± 1500 ng·h/mL, the AUC(0-inf) came to 4160 ± 1440 ng·h/mL and the Cmax was 356 ± 201 ng/mL.
For the compound `CN(C)c1cc2nn([C@H]3CC[C@H](CN4C[C@@H](F)[C@H](n5cc6cc(C7CCC(=O)NC7=O)c(F)cc6n5)C4)CC3)cc2cc1NC(=O)c1cnn2cccnc12` (stereo partly drawn) [TM-245], the IC50 in series [1] worked out at 2.58 nM. Further, in series [2] (iv, 1.00 mg/kg), the AUC was 2910 ± 62.8 ng·h/mL, the AUC(0-inf) turned out to be 2980 ± 114 ng·h/mL and the Cmax was 554 ± 60.7 ng/mL. For the same compound, in series [3], the bioavailability was determined as 63.7%, the AUC was 14500 ± 1420 ng·h/mL, the AUC(0-inf) was determined as 19000 ± 5060 ng·h/mL and the Cmax worked out at 1190 ± 92.3 ng/mL. In addition, in series [4], the half-life at 1 µM worked out at 87.4 min.
On to `CN(C)c1cc2nn([C@H]3CC[C@H](CN4CC[C@@H](n5cc6cc(C7CCC(=O)NC7=O)c(F)cc6n5)[C@@H](F)C4)CC3)cc2cc1NC(=O)c1cnn2cccnc12` (stereo partly drawn) [TM-135], for which the IC50 in series [1] came out at 2.66 nM. Also, in series [2] (iv, 1.00 mg/kg), the AUC stood at 1170 ± 260 ng·h/mL, the AUC(0-inf) was determined as 1220 ± 333 ng·h/mL and the Cmax stood at 790 ± 65.9 ng/mL. Further, the bioavailability in series [2] (po, ig 5.00 mg/kg vs iv 1.00 mg/kg, read-out: Oral bioavailability Fobs) came to 33.2%. Besides, in series [2] (po, ig, 5.00 mg/kg), the AUC is 1900 ± 565 ng·h/mL, the AUC(0-inf) was found to be 2030 ± 529 ng·h/mL and the Cmax is 433 ± 198 ng/mL. Further, in series [4], the half-life at 1 µM was determined as 65 min.

In general, IC50 refers to the midpoint of a concentration-inhibition curve. The term AUC denotes the area under the concentration-time curve, a measure of exposure. A higher AUC goes with high exposure. The term AUC(0-inf) denotes total exposure, with the tail of the curve extrapolated. What is called bioavailability is the share of a dose that reaches the circulation, judged against a reference dose that is usually intravenous.

The values are drawn from patent US20260216348A1, “IRAK DEGRADATION AGENT AND USE THEREOF” (Increland, priority 2023, published 2026).
